# Several values for one entry are separate records, joined by “and”; a condition that tells them apart may be missing. Equal entries are not always repeated.
# Experiments:
# Gerbillinae [1] = assay: In vivo percent inhibition of gerbil foot tapping 0 hours after iv administration of 3 mg/kg; format: functional
# Gerbillinae [2] = assay: In vivo percent inhibition of gerbil foot tapping 2 hours after iv administration of 3 mg/kg; format: functional
# Substance-P receptor = Substance-P receptor (Homo sapiens, UniProt P25103); assay: Ability to displace [125I]-labeled substance P from human cloned Tachykinin receptor 1 in CHO cells.; format: cell-based
# [3] = Maximum plasma concentration determined in rat; format: ADME, organism-based
# [4] = Time for maximum plasma concentration determined in rat; format: ADME, organism-based
# [5] = Half life of compound determined in rat; format: ADME, organism-based; details: in vivo, read-out: Time (converted)
# [6] = Mean residence time determined in rat; format: ADME, organism-based; details: in vivo, read-out: Time
# [7] = Steady state volume of distribution determined in rat; format: ADME, organism-based; details: in vivo, read-out: Vss
# [8] = Oral bioavailability in rat; format: ADME, organism-based; details: in vivo
# Gerbillinae [9] = assay: Inhibitory dose against gerbil foot tapping 2 hours after iv administration; format: functional
# Gerbillinae [10] = assay: In vivo percent inhibition of gerbil foot tapping 0 hours after iv administration of 1 mg/kg; format: functional
# Gerbillinae [11] = assay: In vivo percent inhibition of gerbil foot tapping 2 hours after iv administration of 1 mg/kg; format: functional
# [12] = Plasma clearance rate determined in rat; format: ADME, organism-based
# [13] = Plasma half life determined in rat; format: ADME, organism-based; details: read-out: Time (converted)
# Gerbillinae [14] = assay: In vivo percent inhibition of gerbil foot tapping 0 hours after iv administration at 3 mg/kg; format: functional
# Chain of Substance-P receptor (P25103 whole entry): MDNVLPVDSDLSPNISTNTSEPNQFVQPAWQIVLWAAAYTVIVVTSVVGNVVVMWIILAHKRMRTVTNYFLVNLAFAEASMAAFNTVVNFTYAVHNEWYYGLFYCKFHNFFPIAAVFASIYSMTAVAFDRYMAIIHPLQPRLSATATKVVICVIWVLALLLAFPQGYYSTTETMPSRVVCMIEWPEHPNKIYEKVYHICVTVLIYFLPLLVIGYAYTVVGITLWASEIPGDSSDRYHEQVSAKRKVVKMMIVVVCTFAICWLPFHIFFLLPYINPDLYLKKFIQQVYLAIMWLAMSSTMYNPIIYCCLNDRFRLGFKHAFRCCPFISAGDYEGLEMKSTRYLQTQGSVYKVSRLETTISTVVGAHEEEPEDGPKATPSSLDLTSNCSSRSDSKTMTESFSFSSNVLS
structure (smiles),measurement,setting,value
Cn1c(-c2ccc(Cl)cc2)c(CCC(=O)N2CCN(Cc3ccccc3)CC2)c2cc(Cl)ccc21,inhibition in vivo at 3 mg/kg,Gerbillinae [1],100%
same,inhibition in vivo at 3 mg/kg,Gerbillinae [2],17%
same,IC50,Substance-P receptor,300 pM
Cn1c(-c2ccc(Cl)cc2)c(CCC(=O)N2CCC(F)(Cc3ccccc3)CC2)c2cc(Cl)ccc21,IC50,Substance-P receptor,550 pM
Cn1c(-c2ccc(Cl)cc2)c(CCC(=O)N2CCN(Cc3ccccc3)C(=O)C2)c2cc(Cl)ccc21,IC50,Substance-P receptor,390 pM
Cn1c(-c2ccc(Cl)cc2)c(CCC(=O)N2CCC(CO)(c3ccccc3)CC2)c2cc(Cl)ccc21,IC50,Substance-P receptor,55000 pM
CCC(=O)N(c1ccccc1)C1CCN(C(=O)CCc2c(-c3ccc(Cl)cc3)n(C)c3ccc(Cl)cc23)CC1,Inhibition,Gerbillinae [1],100%
same,Inhibition,Gerbillinae [2],50%
same,IC50,Substance-P receptor,160 pM
Cn1c(-c2ccc(Cl)cc2)c(CCC(=O)N2CCC(O)(Cc3ccccc3)CC2)c2cc(Cl)ccc21,Cmax,[3],4 ng/mL
same,Tmax,[4],1.2 h
same,half-life,[5],3.1 h
same,MRT,[6],1.8 h
same,Vd,[7],3.5 L/kg
same,bioavailability,[8],3%
same,ID50,Gerbillinae [9],0.3 mg/kg and 0.9 mg/kg
same,IC50,Substance-P receptor,210 pM
Cn1c(-c2ccc(Cl)cc2)c(CCC(=O)N2CCN(C3CCCCC3)CC2)c2cc(Cl)ccc21,inhibition in vivo at 3 mg/kg,Gerbillinae [1],100%
same,inhibition in vivo at 3 mg/kg,Gerbillinae [2],7%
same,IC50,Substance-P receptor,350 pM
Cn1c(-c2ccc(Cl)cc2)c(CCC(=O)N2CCN(CC(=O)Nc3ccccc3)CC2)c2cc(Cl)ccc21,IC50,Substance-P receptor,30000 pM
Cn1c(-c2ccc(Cl)cc2)c(CCC(=O)N2CCN(CC3CCCCC3)CC2)c2cc(Cl)ccc21,IC50,Substance-P receptor,2900 pM
Cn1c(-c2ccc(Cl)cc2)c(CCC(=O)N2CCN(CC(C)(C)C)CC2)c2cc(Cl)ccc21,IC50,Substance-P receptor,2000 pM
Cn1c(-c2ccc(Cl)cc2)c(CCC(=O)N2CCN(CC3CC3)CC2)c2cc(Cl)ccc21,IC50,Substance-P receptor,780 pM
Cn1c(-c2ccc(Cl)cc2)c(CCC(=O)N2CCC(Nc3ccccc3)CC2)c2cc(Cl)ccc21,IC50,Substance-P receptor,1300 pM
CN(C(=O)CN1CCN(C(=O)CCc2c(-c3ccc(Cl)cc3)n(C)c3ccc(Cl)cc23)CC1)c1ccccc1,inhibition in vivo at 1 mg/kg,Gerbillinae [10],87%
same,inhibition in vivo at 1 mg/kg,Gerbillinae [11],6%
same,IC50,Substance-P receptor,130 pM
CC(C)N1CCN(C(=O)CCc2c(-c3ccc(Cl)cc3)n(C)c3ccc(Cl)cc23)CC1,IC50,Substance-P receptor,13000 pM
CC(=O)C1(c2ccccc2)CCN(C(=O)CCc2c(-c3ccc(Cl)cc3)n(C)c3ccc(Cl)cc23)CC1,IC50,Substance-P receptor,530 pM
COc1ccccc1N1CCN(C(=O)CCc2c(-c3ccc(Br)cc3)[nH]c3ccc(C)cc23)CC1,clearance,[12],179 mL/min/kg
same,Cmax,[3],2 ng/mL
same,Tmax,[4],1.1 h
same,MRT,[6],0.9 h
same,half-life,[13],1.4 h
same,Vd,[7],9.5 L/kg
same,bioavailability,[8],3%
same,inhibition in vivo at 3 mg/kg,Gerbillinae [14],46%
Cn1c(-c2ccc(Cl)cc2)c(CCC(=O)N2CCC(Cc3ccccc3)CC2)c2cc(Cl)ccc21,IC50,Substance-P receptor,2200 pM
CC(C)CCN1CCN(C(=O)CCc2c(-c3ccc(Cl)cc3)n(C)c3ccc(Cl)cc23)CC1,IC50,Substance-P receptor,340 pM
